# Reference: patent US20250281483A1, “TRANSCRIPTION FACTOR EB ACTIVATORS AND USES THEREOF” (Astellas Engineered Small Molecules US, Incorporated, priority 2022, published 2025)
# Tests used:
# [1] = In Vitro Liver Microsomes Metabolic Stability Assay, rat; assay type: in vitro ADME; conditions: rat liver microsomes 0.5 mg/mL, 1 μM compound, NADPH, 0 and 30 min; scale-up CLint; read-out: CLint, Rat LM
# Description: (§1) In Vitro Liver Microsomes Metabolic Stability Assay of Different Species
# (§2) 1. The liver microsomes were stored at −80° C. prior to use.
# (§3) 2. The master solution was prepared according to Table 3.
# (§4) 3. 40 μL of 10 mM NADPH solution was added to each well. The final concentrations of NADPH was 1 mM. The mixture was pre-warmed at 37° C. for 5 minutes. The negative control samples were prepared by replacing NADPH solutions with 40 μL of ultra-pure H2O. The negative control was used to exclude the misleading factor that resulted from instability of chemical itself. Samples with NADPH were prepared in duplicate. Negative controls were prepared in singlet.
# (§5) 4. The reaction was started with the addition of 2 μL of 200 μM control compound or test compound solutions. Verapamil was used as positive control in this study. The final concentration of test compound or control compound was 1 μM.
# (§6) 5. Aliquots of 50 μL were taken from the reaction solution at 0 and 30 minutes. The reaction was stopped by the addition of 4 volumes of cold acetonitrile with Internal Standard (100 nM alprazolam, 200 nM imipramine, 200 nM labetalol and 2 μM ketoprofen). Samples were centrifuged at 3, 220 g for 40 minutes. Aliquot of 90 μL of the supernatant was mixed with 90 μL of ultra-pure H2O and then used for LC-MS/MS analysis.
# (§7) Peak areas were determined from extracted ion chromatograms. The slope value, k, was determined by linear regression of the natural logarithm of the remaining percentage of the parent drug vs. incubation time curve.
# (§8) The in vitro half-life (in vitro t1/2) was determined from the slope value:
# (§9) Conversion of the in vitro t1/2 (min) into the in vitro intrinsic clearance (in vitro CLint, in μL/min/mg protein) was done using the following equation (mean of duplicate determinations): […]
# (§10) Conversion of the in vitro t1/2 (min) into the scale-up unbound intrinsic clearance (Scale-up CLint, in mL/min/kg) was done using the following equation (mean of duplicate determinations): […]
# TFEB = target: T1, TFEB (Homo sapiens, UniProt P19484); test: Tfeb-Translocation Assay HEK-293T-oEX-Tfeb-GFP Cell Line; assay type: cell-based; conditions: HEK-293T-oEX-TFEB-GFP cells; translocation positive cells ratio; read-out: TFEB Translocation EC50
# T1 sequence (P19484 1-476): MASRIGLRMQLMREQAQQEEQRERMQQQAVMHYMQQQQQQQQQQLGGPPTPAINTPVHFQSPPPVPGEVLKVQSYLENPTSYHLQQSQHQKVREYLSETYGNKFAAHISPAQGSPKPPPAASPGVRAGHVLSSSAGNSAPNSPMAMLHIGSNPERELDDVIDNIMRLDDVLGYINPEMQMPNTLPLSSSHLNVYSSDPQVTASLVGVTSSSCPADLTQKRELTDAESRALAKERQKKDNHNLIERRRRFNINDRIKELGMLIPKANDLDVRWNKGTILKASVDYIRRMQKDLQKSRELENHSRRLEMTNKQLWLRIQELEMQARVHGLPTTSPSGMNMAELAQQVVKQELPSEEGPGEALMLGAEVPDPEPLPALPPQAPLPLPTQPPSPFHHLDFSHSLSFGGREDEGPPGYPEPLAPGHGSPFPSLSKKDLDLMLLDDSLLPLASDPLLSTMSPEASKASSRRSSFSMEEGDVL
# How it was run: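 HEK-293T cells overexpressing Tfeb-GFP were treated for 6 or 18 h at 37 °C with 10-point 3- or 2-fold dilutions from 50 µM (Torin 1 reference from 300 nM), then PFA-fixed and Hoechst-stained. Cells with nuclear/perinuclear EGFP ratio 1.2 among EGFP-positive cells were scored as translocation-positive; DMSO set to ~15% for normalization.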
# [2] = In Vitro Liver Microsomes Metabolic Stability Assay, mouse; assay type: in vitro ADME; conditions: mouse liver microsomes 0.5 mg/mL, 1 μM compound, NADPH, 0 and 30 min; scale-up CLint; read-out: CLint, Mouse LM
# Description: as §1, §2, §3, §4, §5, §6, §7, §8, §9, §10
# [3] = In Vitro Liver Microsomes Metabolic Stability Assay, human; assay type: in vitro ADME; conditions: human liver microsomes 0.5 mg/mL, 1 μM compound, NADPH, 0 and 30 min; scale-up CLint; read-out: CLint, Human LM
# Description: as §1, §2, §3, §4, §5, §6, §7, §8, §9, §10
Structure (SMILES),CLint scaled at 1 μM [1],EC50 (TFEB),CLint scaled at 1 μM [2],CLint scaled at 1 μM [3]
"Cc1cccc(CNC(=O)c2cc3c(=O)n(Cc4ccccc4)ccc3nc2C)c1 [Example 5, 6-benzyl-2-methyl-N-(3-methylbenzyl)-5-oxo-5,6-dihydro-1,6-naphthyridine-3-carboxamide]",1040 mL/min/kg,100 to 1000 nM,1800 mL/min/kg,171 mL/min/kg
"Cc1nc2ccn(Cc3ccccc3)c(=O)c2cc1C(=O)NCc1ccccn1 [Example 7, 6-benzyl-2-methyl-5-oxo-N-(pyridin-2-ylmethyl)-5,6-dihydro-1,6-naphthyridine-3-carboxamide]",28 mL/min/kg,100 to 1000 nM,91 mL/min/kg,2 mL/min/kg
"Cc1nc2ccn(Cc3ccccc3)c(=O)c2cc1C(=O)NCc1ccccc1 [Example 17, N,6-dibenzyl-2-methyl-5-oxo-5,6-dihydro-1,6-naphthyridine-3-carboxamide]",163 mL/min/kg,100 to 1000 nM,470 mL/min/kg,15 mL/min/kg
"Cc1nc2ccn(Cc3ccc(Cl)cc3)c(=O)c2cc1C(=O)NCc1ccccn1 [Example 31, 6-(4-chlorobenzyl)-2-methyl-5-oxo-N-(pyridin-2-ylmethyl)-5,6-dihydro-1,6-naphthyridine-3-carboxamide]",55 mL/min/kg,< 100 nM,132 mL/min/kg,1 mL/min/kg
"Cc1nc2ccn(Cc3ccccc3)c(=O)c2cc1C(=O)NCc1cc(F)c(F)cn1 [Example 50, 6-benzyl-N-((4,5-difluoropyridin-2-yl)methyl)-2-methyl-5-oxo-5,6-dihydro-1,6-naphthyridine-3-carboxamide]",70 mL/min/kg,< 100 nM,124 mL/min/kg,3 mL/min/kg

# Other lines, results leading:
CLint scaled at 1 μM [1],EC50 (TFEB),CLint scaled at 1 μM [2],CLint scaled at 1 μM [3],Structure (SMILES)
217 mL/min/kg,100 to 1000 nM,414 mL/min/kg,16 mL/min/kg,"Cc1cccc(CNC(=O)c2cc3c(=O)n(Cc4ccccc4)ccc3nc2C)n1 [Example 6, 6-benzyl-2-methyl-N-((6-methylpyridin-2-yl)methyl)-5-oxo-5,6-dihydro-1,6-naphthyridine-3-carboxamide]"
73 mL/min/kg,100 to 1000 nM,140 mL/min/kg,4 mL/min/kg,"Cc1nc(CNC(=O)c2cc3c(=O)n(Cc4ccccc4)ccc3nc2C)co1 [Example 18, 6-benzyl-2-methyl-N-((2-methyloxazol-4-yl)methyl)-5-oxo-5,6-dihydro-1,6-naphthyridine-3-carboxamide]"
